Several values for one entry are separate records, joined by “and”; a condition that tells them apart may be missing. Equal entries are not always repeated. Where two headings read alike, the source gives them in different places. Blank lines part the entries; values can stand above or below the compound they belong to.
Experiments:
[1] = system: ATP-induced IP formation in PC3 cells; settings: maximal dose (10 μM)
[2] = system: NT-induced inositol phosphate (IP) formation in PC3 cells; experiment: NT-induced IP formation in PC3 cells; format: cell-based; settings: for IC50: Homo sapiens, PC-3; for IP Formation Efficacy (% decrease): maximal % decrease in NT-induced IP formation
[3] = design: key: +: All of the compounds listed in Table 12 were anticancerous; settings: from anticancer literature; cited from earlier work
NTR1 [4] = molecular target: T1, NTR1 (Homo sapiens, UniProt P30989); experiment: ^125I-NT binding to PC3 cells; settings: for NT Binding Assay: ability to enhance NT binding in PC3 cells
T1 construct: endogenous in cells; host or cells: PC3 cells (ATCC)
T1 sequence (P30989 whole entry): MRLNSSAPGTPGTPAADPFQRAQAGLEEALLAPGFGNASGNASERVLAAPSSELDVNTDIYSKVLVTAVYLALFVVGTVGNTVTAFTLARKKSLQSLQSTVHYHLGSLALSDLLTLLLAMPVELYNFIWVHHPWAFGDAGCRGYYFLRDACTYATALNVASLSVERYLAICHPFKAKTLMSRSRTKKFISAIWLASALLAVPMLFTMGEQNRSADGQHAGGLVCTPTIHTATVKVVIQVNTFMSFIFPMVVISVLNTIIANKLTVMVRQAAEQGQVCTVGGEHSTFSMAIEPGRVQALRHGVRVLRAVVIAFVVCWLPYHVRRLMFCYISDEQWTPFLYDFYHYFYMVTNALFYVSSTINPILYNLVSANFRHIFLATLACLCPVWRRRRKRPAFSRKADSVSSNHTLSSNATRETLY

5-LOX = settings: range of reported values, various blood cell systems; cited from earlier work
β2-adrenergic receptor [5] = molecular target: T2, β2-adrenergic receptor (Homo sapiens, UniProt P07550); experiment: ^125I-pindolol binding to PC3 cells
T2 construct: endogenous in cells; host or cells: PC3 cells (ATCC)
T2 sequence (P07550 whole entry): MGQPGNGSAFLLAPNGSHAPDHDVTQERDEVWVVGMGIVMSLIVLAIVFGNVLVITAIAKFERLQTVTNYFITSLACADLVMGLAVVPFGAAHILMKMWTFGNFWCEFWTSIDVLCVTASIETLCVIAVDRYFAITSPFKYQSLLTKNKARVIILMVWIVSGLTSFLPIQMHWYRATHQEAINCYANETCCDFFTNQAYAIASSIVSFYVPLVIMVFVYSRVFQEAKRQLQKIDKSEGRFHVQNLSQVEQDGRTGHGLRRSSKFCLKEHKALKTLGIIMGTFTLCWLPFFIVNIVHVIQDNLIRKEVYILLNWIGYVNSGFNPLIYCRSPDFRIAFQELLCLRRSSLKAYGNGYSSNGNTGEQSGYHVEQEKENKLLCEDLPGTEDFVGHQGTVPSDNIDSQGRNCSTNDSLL

[6] = molecular target: T3, vasopressin (V1a) receptor (Homo sapiens, UniProt P37288); experiment: ^125I-HOLVA binding to PC3 cells
T3 construct: endogenous in cells; host or cells: PC3 cells (ATCC)
T3 sequence (P37288 whole entry): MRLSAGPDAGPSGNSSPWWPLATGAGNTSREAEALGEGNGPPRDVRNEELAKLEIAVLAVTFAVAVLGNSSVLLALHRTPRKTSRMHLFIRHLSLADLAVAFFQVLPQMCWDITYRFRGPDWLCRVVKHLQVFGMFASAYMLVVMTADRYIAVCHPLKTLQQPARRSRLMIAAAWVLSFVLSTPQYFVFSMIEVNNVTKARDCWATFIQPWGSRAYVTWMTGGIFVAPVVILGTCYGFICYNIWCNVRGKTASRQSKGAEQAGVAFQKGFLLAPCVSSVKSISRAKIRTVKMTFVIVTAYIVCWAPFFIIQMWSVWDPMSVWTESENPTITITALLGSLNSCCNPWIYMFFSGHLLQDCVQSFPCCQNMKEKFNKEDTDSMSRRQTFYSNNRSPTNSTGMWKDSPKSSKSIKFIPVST

bombesin receptor = molecular target: T4, bombesin receptor (Homo sapiens, UniProt P30550); experiment: ^125I-[Nle14]-bombesin binding to PC3 cells
T4 construct: endogenous in cells; host or cells: PC3 cells (ATCC)
T4 sequence (P30550 whole entry): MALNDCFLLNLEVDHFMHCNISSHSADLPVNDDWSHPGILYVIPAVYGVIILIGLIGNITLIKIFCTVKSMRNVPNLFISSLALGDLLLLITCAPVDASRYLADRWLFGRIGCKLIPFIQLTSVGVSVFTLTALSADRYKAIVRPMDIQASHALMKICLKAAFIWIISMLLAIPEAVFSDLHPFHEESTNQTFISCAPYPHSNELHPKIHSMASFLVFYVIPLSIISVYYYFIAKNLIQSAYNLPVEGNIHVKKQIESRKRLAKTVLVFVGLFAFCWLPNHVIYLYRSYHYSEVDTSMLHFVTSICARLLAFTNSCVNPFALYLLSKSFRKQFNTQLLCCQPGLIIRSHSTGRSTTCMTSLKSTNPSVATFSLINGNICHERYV

NTR1 [7] = molecular target: T1, NTR1; experiment: ^125I-NT binding to PC3 cell membranes; settings: 22° C., 60 minutes
EGF receptor = molecular target: T5, EGF receptor (Homo sapiens, UniProt P00533); experiment: ^125I-EGF binding to PC3 cells
T5 construct: endogenous in cells; host or cells: PC3 cells (ATCC)
T5 sequence (P00533 25-1210): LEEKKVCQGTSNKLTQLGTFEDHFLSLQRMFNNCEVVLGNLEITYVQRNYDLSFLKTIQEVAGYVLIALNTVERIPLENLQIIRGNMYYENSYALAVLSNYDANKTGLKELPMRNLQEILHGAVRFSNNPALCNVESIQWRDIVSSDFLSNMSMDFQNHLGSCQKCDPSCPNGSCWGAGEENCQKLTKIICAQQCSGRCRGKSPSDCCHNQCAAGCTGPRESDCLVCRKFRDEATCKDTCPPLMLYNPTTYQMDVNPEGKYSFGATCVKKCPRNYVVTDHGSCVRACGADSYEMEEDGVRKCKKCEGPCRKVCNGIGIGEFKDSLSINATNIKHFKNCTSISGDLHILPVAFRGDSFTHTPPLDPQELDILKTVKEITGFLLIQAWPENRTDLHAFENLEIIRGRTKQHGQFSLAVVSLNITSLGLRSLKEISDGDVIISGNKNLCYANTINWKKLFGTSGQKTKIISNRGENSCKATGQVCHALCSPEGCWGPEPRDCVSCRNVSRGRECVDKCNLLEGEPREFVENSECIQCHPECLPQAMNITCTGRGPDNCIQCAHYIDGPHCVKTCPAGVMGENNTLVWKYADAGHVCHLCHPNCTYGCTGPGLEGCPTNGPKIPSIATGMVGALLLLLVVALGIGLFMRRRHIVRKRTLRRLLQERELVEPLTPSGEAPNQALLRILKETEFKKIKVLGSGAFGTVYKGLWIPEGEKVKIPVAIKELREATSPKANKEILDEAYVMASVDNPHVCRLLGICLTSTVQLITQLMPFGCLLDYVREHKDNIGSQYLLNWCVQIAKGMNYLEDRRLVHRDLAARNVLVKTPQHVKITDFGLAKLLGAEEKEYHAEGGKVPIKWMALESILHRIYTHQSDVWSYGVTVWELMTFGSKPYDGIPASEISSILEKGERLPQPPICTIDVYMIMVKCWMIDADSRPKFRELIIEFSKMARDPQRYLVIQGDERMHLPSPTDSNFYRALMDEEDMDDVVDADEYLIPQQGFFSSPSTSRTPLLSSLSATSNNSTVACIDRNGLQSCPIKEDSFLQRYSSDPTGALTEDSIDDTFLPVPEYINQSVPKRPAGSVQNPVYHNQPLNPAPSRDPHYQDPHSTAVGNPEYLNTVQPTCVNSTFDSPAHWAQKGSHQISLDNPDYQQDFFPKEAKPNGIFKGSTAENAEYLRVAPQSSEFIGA

[8] = molecular target: T3, vasopressin (V1a) receptor; experiment: ^125I-HOLVA binding to PC3 cell membranes; settings: 60 μM agent
NTR1 [9] = molecular target: T1, NTR1; experiment: Cell-surface binding and internalization of ^125I-NT in PC3 cells; format: cell-based; settings: 50 μM agent, 37° C., prebound at 4° C.
β2-adrenergic receptor [10] = molecular target: T2, β2-adrenergic receptor; experiment: ^125I-pindolol binding to PC3 cell membranes; settings: 60 μM agent
[11] = [agent] that decreased IP formation by 40%
[12] = [agent] giving 100% increase in NT binding
[13] = [agent] at which IP formation was decreased by 50%

Structure (SMILES): Nc1ncnc2c1ncn2[C@@H]1O[C@H](COP(=O)(O)OP(=O)(O)OP(=O)(O)O)[C@@H](O)[C@H]1O [ATP]
Stimulation of IP formation by ATP [1]: ~17 fold and > 15 fold

Structure (SMILES): O=c1cc(-c2ccccc2)oc2cc(O)c(O)c(O)c12 [Baicalein, baicalein]
IC50 [2, 11]: > 100 µM
Anti-cancer [3]: +

Structure (SMILES): c1ccc2c(c1)[I+]c1ccccc1-2 [Diphenylene iodonium]
IC50 ([2]; [agent] giving 50% decrease in IP formation): 35 µM
NT Binding Assay (NTR1 [4]): +
Anti-cancer [3]: +

Structure (SMILES): CCCCCC#CCC#CCC#CCC#CCCCC(=O)O [ETYA, 5,8,11,14-eicosatetraynoic acid]
IC50 [2, 11]: 32 µM
NT Binding Efficacy % increase (NTR1 [4]; LOX blockers): 100 % increase
EC50 (NTR1 [4]; [12]): 50 µM
IC50 (5-LOX): 6 to 50 µM

Structure (SMILES): CC(Cc1ccc(O)c(O)c1)C(C)Cc1ccc(O)c(O)c1 (stereo not drawn) [NDGA, Nordihydroguaiaretic acid]
IC50 [2, 11]: 7 µM
NT Binding Efficacy % increase (NTR1 [4]; LOX blockers): 230 % increase
EC50 (NTR1 [4]; [12]): 16 µM
NT Binding Assay (NTR1 [4]): +
Anti-cancer [3]: +
IC50 (5-LOX): 0.3 to 2 µM

Structure (SMILES): COC(=O)C1=C(C)NC(C)=C(C(=O)OC)C1c1ccccc1[N+](=O)[O-] [NIF, nifedipine]
Binding (% control ± SEM) [8]: 90 ± 3 % control

Structure (SMILES): O=C(CCc1ccc(O)cc1)c1c(O)cc(O)cc1O [Phloretin]
Internalization rate of prebound cell-surface ^125I-NT (NTR1 [9]): 8.1±0.7 %/minute
IC50 [2, 13]: 23 µM
IP Formation Efficacy (% decrease) [2]: 70 % decrease
EC50 (NTR1 [4]): 27 µM

Structure (SMILES): CCCCCC(O)c1cccc(OCc2ccc3ccccc3n2)c1 (stereo not drawn) [Rev5901]
IC50 [2, 11]: 8 µM
EC50 (NTR1 [4]; [12]): 19 µM
NT binding increased as much as / up to (fold) (NTR1 [4]; maximal enhancement of NT binding to PC3 cells): ≤ 2.4 fold
IC50 (5-LOX): 10 µM

Structure (SMILES): COc1ccc(CCN(C)CCCC(C#N)(c2ccc(OC)c(OC)c2)C(C)C)cc1OC (stereo not drawn) [Verapamil, verapamil]
% crossreaction (direct competition with ^125I-pindolol) (β2-adrenergic receptor [5]): ~0.0005%
Binding (% control ± SEM) [8]: 91 ± 5 % control
Binding (% control ± SEM) (β2-adrenergic receptor [10]): 9 ± 2 % control

Continued, in another order:

EC50 (NTR1 [4]; [12]): 22 µM
Structure (SMILES): CCNC(=O)[C@H]1O[C@@H](n2cnc3c(N)nc(NCCc4ccc(CCC(=O)O)cc4)nc32)[C@H](O)[C@@H]1O [CGS21683]
IC50 (5-LOX): 0.01 to 1 µM

Specific Binding (% control) (β2-adrenergic receptor [5]; 12 μM agent): 105 ± 3 % control
Specific Binding (% control) (β2-adrenergic receptor [5]; 60 μM agent): 102 ± 6 ^ % control
Specific Binding (% control) ([6]; 12 μM agent): 93 ± 5 % control
Specific Binding (% control) ([6]; 60 μM agent): 67 ± 3 % control
NT Binding Efficacy % increase (NTR1 [4]; LOX blockers): 210 % increase
EC50 (NTR1 [4]; [12]): 18 µM
NT Binding Assay (NTR1 [4]): +
Specific Binding (% control) (bombesin receptor; 12 μM agent): 106 ± 5 % control
Specific Binding (% control) (bombesin receptor; 60 μM agent): 125 ± 7 % control
Specific NT-Binding (% control) (NTR1 [7]; 10 μM agent): 99 ± 3 % control
Specific NT-Binding (% control) (NTR1 [7]; 25 μM agent): 107 ± 4 % control
Specific NT-Binding (% control) (NTR1 [7]; 75 μM agent): 97 ± 4 % control
Specific Binding (% control) (EGF receptor; 12 μM agent): 141 ± 7 % control
Specific Binding (% control) (EGF receptor; 60 μM agent): 165 ± 11 % control
Increase in EGF binding (EGF receptor; PC3 cells): 65%
Structure (SMILES): CC(C)c1ccc2c(c1)c(SC(C)(C)C)c(CC(C)(C)C(=O)O)n2Cc1ccc(Cl)cc1 [MK886]
Anti-cancer [3]: +
IC50 (5-LOX): 0.1 to 1 µM

% crossreaction (direct competition with ^125I-pindolol) (β2-adrenergic receptor [5]): ~0.0005%
IC50 [2, 13]: 26 µM
Binding (% control ± SEM) [8]: 110 ± 3 % control
EC50 (NTR1 [4]; [agent] at which NT binding was increased by 80%): 23 µM
NT Binding Efficacy % increase (NTR1 [4]; maximal % increase in NT binding observed for each agent): 155 % increase
Binding (% control ± SEM) (β2-adrenergic receptor [10]): 18 ± 5 % control
Structure (SMILES): COc1ccc(CCCOC(Cn2ccnc2)c2ccc(OC)cc2)cc1 (stereo not drawn) [SKF-96365]
IP Formation Efficacy (% decrease) [2]: 69 % decrease

Reference: patent US7507547B2, “Screening assays for antioxidants and antiproliferative compounds” (University of Massachusetts, priority 2004, dated 2009)
